Source: PubChem BioAssay (NCI)
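Where inhibition never reached the appropriate level, the endpoint shown equals the highest concentration tested. Otherwise, values were interpolated linearly from a five-concentration, 48-hour dose response in 96-well plates. The concentration for full growth arrest is given as TGI.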

Assays:
Assay in all cases: NCI tumour cell line growth inhibition, 48 h
A498 renal = test system: A498 renal
A549 NSCLC = test system: A549 NSCLC
CAKI-1 renal = test system: CAKI-1 renal
CCRF-CEM leukemia = test system: CCRF-CEM leukemia
COLO 205 colon = test system: COLO 205 colon
DLD-1 colon = test system: DLD-1 colon
DMS 114 small cell lung = test system: DMS 114 small cell lung
DMS 273 small cell lung = test system: DMS 273 small cell lung
EKVX NSCLC = test system: EKVX NSCLC
HCC-2998 colon = test system: HCC-2998 colon
HCT-116 colon = test system: HCT-116 colon
HCT-15 colon = test system: HCT-15 colon
HL-60(TB) leukemia = test system: HL-60(TB) leukemia
HOP-18 NSCLC = test system: HOP-18 NSCLC
HOP-62 NSCLC = test system: HOP-62 NSCLC
HOP-92 NSCLC = test system: HOP-92 NSCLC
HT29 colon = test system: HT29 colon
IGROV1 ovarian = test system: IGROV1 ovarian
K-562 leukemia = test system: K-562 leukemia
KM12 colon = test system: KM12 colon
KM20L2 colon = test system: KM20L2 colon
LOX IMVI melanoma = test system: LOX IMVI melanoma
M19-MEL melanoma = test system: M19-MEL melanoma
MALME-3M melanoma = test system: MALME-3M melanoma
MCF7 breast = test system: MCF7 breast
MOLT-4 leukemia = test system: MOLT-4 leukemia
NCI-H226 lung = test system: NCI-H226 lung
NCI-H23 lung = test system: NCI-H23 lung
NCI-H460 lung = test system: NCI-H460 lung
NCI-H522 lung = test system: NCI-H522 lung
NCI/ADR-RES ovarian = test system: NCI/ADR-RES ovarian
OVCAR-3 ovarian = test system: OVCAR-3 ovarian
OVCAR-4 ovarian = test system: OVCAR-4 ovarian
OVCAR-5 ovarian = test system: OVCAR-5 ovarian
OVCAR-8 ovarian = test system: OVCAR-8 ovarian
P388 leukemia = test system: P388 leukemia
P388/ADR leukemia = test system: P388/ADR leukemia
RPMI-8226 leukemia = test system: RPMI-8226 leukemia
RXF 393 renal = test system: RXF 393 renal
SF-268 CNS = test system: SF-268 CNS
SF-295 CNS = test system: SF-295 CNS
SF-539 CNS = test system: SF-539 CNS
SK-MEL-2 melanoma = test system: SK-MEL-2 melanoma
SK-MEL-28 melanoma = test system: SK-MEL-28 melanoma
SK-MEL-5 melanoma = test system: SK-MEL-5 melanoma
SK-OV-3 ovarian = test system: SK-OV-3 ovarian
SN12C renal = test system: SN12C renal
SN12K1 renal = test system: SN12K1 renal
SNB-19 CNS = test system: SNB-19 CNS
SNB-75 CNS = test system: SNB-75 CNS
SNB-78 CNS = test system: SNB-78 CNS
SW-620 colon = test system: SW-620 colon
U251 CNS = test system: U251 CNS
UACC-257 melanoma = test system: UACC-257 melanoma
UACC-62 melanoma = test system: UACC-62 melanoma
UO-31 renal = test system: UO-31 renal
XF 498 CNS = test system: XF 498 CNS

Q: Which results are given for `O=C(O)CCC(NC(=O)c1ccc(Nc2nc3ccc(C(F)(F)F)cc3nc2-c2ccccc2)cc1)C(=O)O` (centres undefined)?
A: TGI (A498 renal): > 100 µM; TGI (A549 NSCLC): > 100 µM; TGI (CAKI-1 renal): > 100 µM; TGI (CCRF-CEM leukemia): > 100 µM; TGI (COLO 205 colon): > 100 µM; TGI (DLD-1 colon): > 100 µM; TGI (DMS 114 small cell lung): > 100 µM; TGI (DMS 273 small cell lung): > 100 µM; TGI (EKVX NSCLC): > 100 µM; TGI (HCC-2998 colon): > 100 µM; TGI (HCT-116 colon): > 100 µM; TGI (HCT-15 colon): > 100 µM; TGI (HL-60(TB) leukemia): > 100 µM; TGI (HOP-18 NSCLC): > 100 µM; TGI (HOP-62 NSCLC): > 100 µM; TGI (HOP-92 NSCLC): > 100 µM; TGI (HT29 colon): > 100 µM; TGI (IGROV1 ovarian): > 100 µM; TGI (K-562 leukemia): > 100 µM; TGI (KM12 colon): > 100 µM; TGI (KM20L2 colon): > 100 µM; TGI (LOX IMVI melanoma): > 100 µM; TGI (M19-MEL melanoma): > 100 µM; TGI (MALME-3M melanoma): > 100 µM; TGI (MCF7 breast): > 100 µM; TGI (MOLT-4 leukemia): > 100 µM; TGI (NCI-H226 lung): > 100 µM; TGI (NCI-H23 lung): > 100 µM; TGI (NCI-H460 lung): > 100 µM; TGI (NCI-H522 lung): > 100 µM; TGI (NCI/ADR-RES ovarian): > 100 µM; TGI (OVCAR-3 ovarian): > 100 µM; TGI (OVCAR-4 ovarian): > 100 µM; TGI (OVCAR-5 ovarian): > 100 µM; TGI (OVCAR-8 ovarian): > 100 µM; TGI (P388 leukemia): > 100 µM; TGI (P388/ADR leukemia): > 100 µM; TGI (RPMI-8226 leukemia): > 100 µM; TGI (RXF 393 renal): > 100 µM; TGI (SF-268 CNS): > 100 µM; TGI (SF-295 CNS): > 100 µM; TGI (SF-539 CNS): > 100 µM; TGI (SK-MEL-2 melanoma): > 100 µM; TGI (SK-MEL-28 melanoma): > 100 µM; TGI (SK-MEL-5 melanoma): > 100 µM; TGI (SK-OV-3 ovarian): > 100 µM; TGI (SN12C renal): > 100 µM; TGI (SN12K1 renal): > 100 µM; TGI (SNB-19 CNS): > 100 µM; TGI (SNB-75 CNS): > 100 µM; TGI (SNB-78 CNS): > 100 µM; TGI (SW-620 colon): > 100 µM; TGI (U251 CNS): > 100 µM; TGI (UACC-257 melanoma): > 100 µM; TGI (UACC-62 melanoma): > 100 µM; TGI (UO-31 renal): > 100 µM; TGI (XF 498 CNS): > 100 µM

Q: With `O=Cc1c(Cn2ccnc2)c2cc([N+](=O)[O-])ccc2n1Cc1ccccc1` as the compound, how does the TGI (A498 renal) read?
A: > 100 µM

Q: And the TGI (A549 NSCLC)?
A: > 100 µM

Q: What about the TGI (CAKI-1 renal) of the same compound?
A: 97.3 µM

Q: What about the TGI (CCRF-CEM leukemia) of the same compound?
A: > 100 µM

Q: What about the TGI (COLO 205 colon) of the same compound?
A: > 100 µM

Q: And the TGI (DLD-1 colon)?
A: > 100 µM

Q: And the TGI (DMS 114 small cell lung)?
A: > 100 µM

Q: And the TGI (DMS 273 small cell lung)?
A: > 100 µM

Q: What about the TGI (EKVX NSCLC) of the same compound?
A: > 100 µM

Q: And the TGI (HCC-2998 colon)?
A: > 100 µM

Q: What about the TGI (HCT-116 colon) of the same compound?
A: > 100 µM

Q: And the TGI (HCT-15 colon)?
A: > 100 µM

Q: What about the TGI (HL-60(TB) leukemia) of the same compound?
A: > 41.9 µM

Q: And the TGI (HOP-18 NSCLC)?
A: > 100 µM

Q: And the TGI (HOP-62 NSCLC)?
A: 90.2 µM

Q: What about the TGI (HOP-92 NSCLC) of the same compound?
A: > 100 µM

Q: And the TGI (HT29 colon)?
A: > 100 µM

Q: What about the TGI (IGROV1 ovarian) of the same compound?
A: > 100 µM

Q: What about the TGI (K-562 leukemia) of the same compound?
A: > 100 µM

Q: What about the TGI (KM12 colon) of the same compound?
A: > 100 µM

Q: And the TGI (KM20L2 colon)?
A: > 100 µM

Q: What about the TGI (LOX IMVI melanoma) of the same compound?
A: > 100 µM

Q: What about the TGI (M19-MEL melanoma) of the same compound?
A: > 100 µM

Q: What about the TGI (MALME-3M melanoma) of the same compound?
A: > 100 µM

Q: What about the TGI (MCF7 breast) of the same compound?
A: > 100 µM

Q: And the TGI (MOLT-4 leukemia)?
A: > 100 µM

Q: And the TGI (NCI-H226 lung)?
A: > 100 µM

Q: What about the TGI (NCI-H23 lung) of the same compound?
A: > 100 µM

Q: What about the TGI (NCI-H460 lung) of the same compound?
A: > 100 µM

Q: What about the TGI (NCI-H522 lung) of the same compound?
A: > 100 µM

Q: What about the TGI (NCI/ADR-RES ovarian) of the same compound?
A: > 100 µM

Q: And the TGI (OVCAR-3 ovarian)?
A: > 100 µM

Q: And the TGI (OVCAR-4 ovarian)?
A: > 100 µM

Q: What about the TGI (OVCAR-5 ovarian) of the same compound?
A: > 100 µM

Q: What about the TGI (OVCAR-8 ovarian) of the same compound?
A: > 100 µM

Q: And the TGI (P388 leukemia)?
A: > 100 µM

Q: And the TGI (P388/ADR leukemia)?
A: > 100 µM

Q: And the TGI (RPMI-8226 leukemia)?
A: > 100 µM

Q: And the TGI (RXF 393 renal)?
A: > 100 µM

Q: What about the TGI (SF-268 CNS) of the same compound?
A: > 100 µM

Q: What about the TGI (SF-295 CNS) of the same compound?
A: > 92.3 µM

Q: And the TGI (SF-539 CNS)?
A: > 100 µM

Q: What about the TGI (SK-MEL-2 melanoma) of the same compound?
A: > 100 µM

Q: What about the TGI (SK-MEL-28 melanoma) of the same compound?
A: > 100 µM

Q: And the TGI (SK-MEL-5 melanoma)?
A: > 100 µM

Q: And the TGI (SK-OV-3 ovarian)?
A: > 100 µM

Q: And the TGI (SN12C renal)?
A: > 100 µM

Q: What about the TGI (SN12K1 renal) of the same compound?
A: > 100 µM

Q: What about the TGI (SNB-19 CNS) of the same compound?
A: > 100 µM

Q: And the TGI (SNB-75 CNS)?
A: > 100 µM

Q: And the TGI (SNB-78 CNS)?
A: > 100 µM

Q: And the TGI (SW-620 colon)?
A: > 100 µM

Q: And the TGI (U251 CNS)?
A: > 100 µM

Q: What about the TGI (UACC-257 melanoma) of the same compound?
A: > 100 µM

Q: What about the TGI (UACC-62 melanoma) of the same compound?
A: > 100 µM

Q: And the TGI (UO-31 renal)?
A: > 100 µM

Q: What about the TGI (XF 498 CNS) of the same compound?
A: > 100 µM
